In brackets after ≈: the same amount, converted by molar mass. Like-named read-outs stand apart in the source and are kept apart here.
Assays:
[1] = test system: Staphylococcus aureus ATCC 29213; experiment: Minimal inhibitory concentration (MIC), broth microdilution per CLSI; type: cell-based; settings: strain 29213 (ATCC 29213), antibiotic alone
Procedure: The minimum inhibitory concentration (MIC) of antibiotics and the activity of 7,10-EODA of the present invention against Staphylococcus aureus strains were measured according to the CLSI guideline (CLSI document M100-517, 2007). Specifically, each antibiotic or 7,10-EODA was diluted 2-fold (200-0.97 μg/mL) by adding MHB (Mueller-Hinton Broth) to a 96-well microtiter plate. In the mid-exponential phase (0.5 OD600), the culture was diluted 10-fold with MHB and 0.1 mL aliquots of the diluent were added to wells containing the serially diluted test reagent and cultured at 37° C. for 12 hours. About the end of the culture period, the cell density was measured at an optical density of 600 nm (OD600) using a […].
(§1) Specifically, the minimal inhibitory concentration (MIC) was measured according to the method of Experimental Example 4 above, and the degree of inhibition (Agar diffusion analysis) (zone of inhibition; ZOI) was measured according to the method of Experimental Example 5 above.

[2] = test system: Staphylococcus aureus ATCC 29213; experiment: Agar disk diffusion analysis, zone of inhibition (ZOI); type: cell-based; settings: strain 29213; for ZOI without 7.10-EODA: antibiotic ½×MIC alone; for ZOI with 7.10-EODA: antibiotic ½×MIC with 7,10-EODA ¼×MIC
Procedure: (§2) For synergy effect screening, a 0.1 mL aliquot of MRSA or MSSA strain (5×10^5 CFU/mL) cultured in a log-phase on TSA plates was inoculated. […] A disk including DMSO alone or 7,10-EODA alone (¼×MIC) was used as a control group. The plates were cultured under conditions of […] and 24 hours, and a synergistic effect was observed when the disk periphery including both antibiotic and 7,10-EODA was at least 5 mm in zone of inhibition (ZOI).
as §1

[3] = test system: MDRSA 01ST001; experiment: as above; type: cell-based, Staphylococcus aureus; settings: for ZOI without 7.10-EODA / ZOI with 7.10-EODA: strain 001; for ZOI without 7.10-EODA: antibiotic ½×MIC alone; for ZOI with 7.10-EODA: antibiotic ½×MIC with 7,10-EODA ¼×MIC; for antimicrobial activity, disk diffusion: 100 μg each, FIG. 4; for antimicrobial activity effect in combination with 7,10-EODA: antibiotic treated in combination with 7,10-EODA, Table 1 summary
Procedure: as §2
Specifically, in order to compare the antimicrobial activity of the 7,10-EODA or the antibiotic of the present invention against the MDRSA 01ST001 strain, the MDRSA 01ST001 strain was treated with the 7,10-EODA (E 100 μg) of the present invention, streptomycin (S, 100 μg), ampicillin (A, 100 μg), oxacillin (O, 100 μg), vancomycin (V, 100 μg), or penicillin (P, 100 μg), according to the method described in Experimental Example 5.
as §1

[4] = test system: MDRSA 01ST001; experiment: Minimal inhibitory concentration (MIC), broth microdilution per CLSI
[5] = test system: MRSA 01ST001 (MDRSA 01ST001); experiment: Antimicrobial activity on solid medium (clear zone around filter paper); type: cell-based, Staphylococcus aureus; settings: for clear zone on agar plate: 100 μg per filter paper, 37° C., 2 to 3 days, FIG. 1
Procedure: (§3) First, 1.5% of potato agar was added to the YDP medium, sterilized, and then an agar plate hardened by pouring about 20 ml in a plastic Petri dish was used. MRSA 01ST001 was diluted to about 107/ml, and then about 500 μl was dispersed evenly on the agar plate.
(§4) The size of the clear zone around the filter paper shown after the culture at 37° C. for 2 to 3 days after the inoculation was measured to confirm the degree of antimicrobial activity. At this time, vancomycin 100 μg, oxacillin 100 μg, ampicillin 100 μg, streptomycin 100 μg, and penicillin 100 μg were used as control groups.
(§5) The antimicrobial activity can be confirmed with the degree showing the clear zone on the agar plate. It is judged that the larger the clear zone, the higher the antimicrobial activity. The results are illustrated in FIG. 1 and FIG. 2.
(§6) The results are illustrated in FIG. 3. The experiment was carried out in the same manner as in Example 1-2.

[6] = test system: Staphylococcus aureus ATCC 29213; experiment: as above; type: cell-based; settings: FIG. 3
Procedure: as §3, §4, §5, §6

[7] = Staphylococcus aureus, ATCC29213, read-out: MIC
[8] = strain 001 (MDRSA 01ST001), antibiotic alone

Row | Molecule | MIC [1, 7] | ZOI without 7.10-EODA [2] | ZOI with 7.10-EODA [2] | ZOI without 7.10-EODA [3] | ZOI with 7.10-EODA [3] | MIC ([4]; Staphylococcus aureus) | clear zone on agar plate [5] | antimicrobial activity, disk diffusion [3] | antimicrobial activity effect in combination with 7,10-EODA [3] | antimicrobial activity on solid medium ([5]; MDRSA 01ST001, FIG. 3) | antimicrobial activity on solid medium [6] | MIC [1] | degree of decrease of the MIC90 value of penicillin versus no 7,10-EODA ([4]; 7,10-EODA at 1/16 of its original MIC90) | degree of decrease of the MIC90 value of penicillin versus no 7,10-EODA ([4]; 7,10-EODA at ⅛ of its original MIC90) | MIC90 value of penicillin ([4]; 7,10-EODA not used in combination, OD600) | MIC90 value of penicillin ([4]; in combination with 7.5 μg/mL 7,10-EODA (1/16 of its MIC90)) | MIC90 value of penicillin ([4]; in combination with 15.0 μg/mL 7,10-EODA (⅛ of its MIC90)) | MIC [4, 8]
1 | CN(C)CCCN1c2ccccc2Sc2ccc(Cl)cc21 [CPZ, chlorpromazine] | 125 µg/mL (≈ 392 µM) | 6.0 ± 0.0 mm | 8.05 mm | 7.2 ± 0.1 mm | 12.0 mm | 62.5 µg/mL (≈ 196 µM) |  |  |  |  |  |  |  |  |  |  |  | 
2 | COc1cc(Cc2cnc(N)nc2N)cc(OC)c1OC [TMP, trimethoprim] | 7.8 µg/mL (≈ 26.9 µM) | 8.9 ± 0.1 mm | 12.3 mm | 6.0 ± 0.0 mm | 6.00 mm | 7.8 µg/mL (≈ 26.9 µM) |  |  |  |  |  |  |  |  |  |  |  | 
3 | O=C(N[C@H](CO)[C@H](O)c1ccc([N+](=O)[O-])cc1)C(Cl)Cl [CPL, chloramphenicol] | 10 µg/mL (≈ 30.9 µM) | 7.4 ± 0.2 mm | 7.21 mm | 13.2 ± 0.4 mm | 13.9 mm | 10 µg/mL (≈ 30.9 µM) |  |  |  |  |  |  |  |  |  |  |  | 
4 | [H]/N=C(/N)N[C@H]1[C@H](O)[C@@H](O)[C@H](O[C@@H]2O[C@@H](C)[C@](O)(C=O)[C@H]2O[C@@H]2O[C@@H](CO)[C@H](O)[C@@H](O)[C@@H]2NC)[C@@H](N/C(N)=N\[H])[C@@H]1O [STP, streptomycin] | 3 µg/mL (≈ 5.16 µM) | 6.0 ± 0.0 mm | 11.4 mm | 6.0 ± 0.0 mm | 12.9 mm | 62.5 µg/mL (≈ 107 µM) | no clear zone appeared | resistant | strong antimicrobial activity effect |  |  |  |  |  |  |  |  | 
5 | CO[C@H]1/C=C/O[C@@]2(C)Oc3c(C)c(O)c4c(O)c(c(/C=N/N5CCN(C)CC5)c(O)c4c3C2=O)NC(=O)/C(C)=C\C=C\[C@H](C)[C@H](O)[C@@H](C)[C@@H](O)[C@@H](C)[C@H](OC(C)=O)[C@@H]1C [RIF, rifampicin] | 5 µg/mL (≈ 6.08 µM) | 21.0 ± 0.8 mm |  | 18.3 ± 0.2 mm | 20.2 mm | 5 µg/mL (≈ 6.08 µM) |  |  |  |  |  |  |  |  |  |  |  | 
6 | CC1=C(C(=O)O)N2C(=O)[C@@H](NC(=O)[C@H](N)c3ccccc3)[C@H]2SC1 [CEP, cephalexin] | 1.97 µg/mL (≈ 5.67 µM) | 15.3 ± 0.1 mm | 15.3 mm | 10.1 ± 1.3 mm | 13.1 mm | 1000 µg/mL (≈ 2880 µM) |  |  |  |  |  |  |  |  |  |  |  | 
7 | CN[C@H](CC(C)C)C(=O)N[C@H]1C(=O)N[C@@H](CC(N)=O)C(=O)N[C@H]2C(=O)N[C@H]3C(=O)N[C@H](C(=O)N[C@H](C(=O)O)c4cc(O)cc(O)c4-c4cc3ccc4O)[C@H](O)c3ccc(c(Cl)c3)Oc3cc2cc(c3O[C@@H]2O[C@H](CO)[C@@H](O)[C@H](O)[C@H]2O[C@H]2C[C@](C)(N)[C@H](O)[C@H](C)O2)Oc2ccc(cc2Cl)[C@H]1O [vancomycin] |  |  |  |  |  |  | clear zone appeared |  |  | same antimicrobial activity | same antimicrobial activity |  |  |  |  |  |  | 
8 | penicillin |  | 12.9 ± 0.4 mm | 13.2 mm | 7.1 ± 0.1 mm | 13.6 mm |  | no clear zone appeared | resistant | strong antimicrobial activity effect |  |  | 0.5 µg/mL | 1/32 | ¼ | 350 µg/mL | 87.5 µg/mL | 10.9 µg/mL | 1000.0 µg/mL
9 | Oc1cc(Cl)ccc1Oc1ccc(Cl)cc1Cl [IRG, irgasan] |  | 11.1 ± 0.5 mm | 10.0 mm | 12.4 ± 0.3 mm | 13.8 mm |  |  |  |  |  |  | 0.1 µg/mL (≈ 0.345 µM) |  |  |  |  |  | 0.1 µg/mL (≈ 0.345 µM)
10 | O=C(O)c1cn(C2CC2)c2cc(N3CCNCC3)c(F)cc2c1=O [CIP, ciprofloxacin] |  | 9.6 ± 0.2 mm | 13.2 mm | 6.0 ± 0.0 mm | 13.2 mm |  |  |  | strong antimicrobial activity effect |  |  |  |  |  |  |  |  | 

Reference: patent US10695314B2, “Antimicrobial composition containing 7,10-epoxyoctadeca-7,9-dienoic acid as active ingredient” (priority 2016, dated 2020)
